Where “and” joins values, the source holds several entries; their conditions need not be identical. Identical values can stand only once.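 48-hour exposure; five concentrations; linearly interpolated endpoints. Abbreviation: GI50, concentration required for 50% inhibition of growth. Definition used: TGI = concentration required for complete inhibition of growth.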
How the values were obtained:
Assay in all cases: inhibition of tumour cell growth, NCI panel, 48 h
[1] = tested on: HOP-62 NSCLC
[2] = tested on: NCI-H522 lung
[3] = tested on: SNB-75 CNS
[4] = tested on: DU-145 prostate
[5] = tested on: M14 melanoma

Structure (SMILES) | TGI [1] | TGI [2] | TGI [3] [µM] | TGI [4] [µM] | TGI [5] | GI50 [5]
CC1(C)NC2C(=O)c3c([nH]c4ccccc34)[C@]3(C)CCC1CC23 (stereo not given in full) | > 100 µM | > 100 µM | > 100 | > 100 | – | –
CCOC(=O)c1nc2ccc(C(F)(F)F)cc2nc1NCc1cc(OC)c(OC)c(OC)c1 | > 100 µM | > 100 µM | 90.6 | > 100 | > 100 µM | –
COc1ccc2ccccc2c1/C=C/C(=O)c1ccccc1 | 9 µM | 14.6 µM | 4.01 | 8.89 | 9.62 µM | –
CC(=O)OC(/C=C/c1ccccc1)=C(OC(C)C)/C1=C(\c2ccccc2)SCCCSC1=O | > 100 µM | – | > 100 | > 100 | > 100 µM | –
CC1OC(OC2C(O[C@H]3CC[C@@]4(C)C(=CC[C@H]5[C@@H]6C[C@@H]7O[C@]8(CC[C@@H](CO)CO8)[C@@H](C)[C@@H]7[C@@]6(C)CC[C@@H]54)C3)OC(CO)C(O)C2OC2OC(CO)C(O)C(O)C2O)C(O)C(O)C1O (stereo not given in full) | 3.21 µM | 3.19 µM | 3.06 | 3.34 | 4.14 µM | –
CC(C)(C)OC(=O)NC(Cc1ccc(OCc2ccccc2)cn1)C(=O)N1CCCCC1 (stereo not given) | > 100 µM | > 100 µM | 70.3 | > 100 | > 100 µM | –
CCOC(=O)N/N=C(/N)c1cccc([N+](=O)[O-])c1 | > 100 µM | > 100 µM | > 100 | > 100 | > 100 µM | –
Cc1ccc(/C=C2\CCCc3ccccc3C2=O)cc1 | 60.6 µM | 27.8 µM | > 100 | > 100 | 20.4 µM | –
NC(N)=NCCC[C@H](N)C(=O)NCC(=O)N[C@@H](CC(=O)O)c1ncc(NC(=O)C(F)(F)F)o1 | > 25 µM | > 25 µM | > 25 | > 25 | > 25 µM | –
O=C1C=CC[C@H]2O[C@@H](COC(=O)Cc3ccccc3)C[C@H]2O1 | > 100 µM | – | 77.2 | > 100 | > 100 µM | –
NN/C(=N\S(=O)(=O)c1cc2ccccc2s1)Nc1ccc(Cl)cc1 | 38.2 µM | – | 38.7 | 32.3 | 37.9 µM | –
CCOC(=O)CNc1c(OCc2ccccc2)c(=O)c1=O | > 100 µM | > 100 µM | > 100 | > 100 | > 100 µM | –
O=c1cc(-c2ccc(F)cc2)[nH]c2ncc(Cl)cc12 | > 93.2 µM | 80.4 µM | 48.7 | > 74.4 | > 100 µM | –
Nc1cc2[nH]c(=O)c(=O)[nH]c2cc1N | > 100 µM | > 100 µM | > 100 | > 100 | – | –
CCOc1cn(C2CC(O)C(CO)O2)c(=O)[nH]c1=O (stereo not given) | > 100 µM | – | > 100 | > 100 | > 100 µM | –
Oc1ccc(-c2nc(-c3cccnc3)c(-c3ccc(Cl)cc3)[nH]2)cc1 | 30.9 µM | 23.8 µM | 19.9 | 29.4 | 26.1 µM | –

Structure (SMILES) | TGI [1] | TGI [2] | TGI [3] [µM] | TGI [4] [µM] | TGI [5] | GI50 [5]
N=C(N)c1ccc(C(NC(=O)CNS(=O)(=O)c2ccc3ccccc3c2)P(=O)(Oc2ccccc2)Oc2ccccc2)cc1 (stereo not given) | > 100 µM | > 100 µM | > 100 | > 100 | > 100 µM | –
O=C1CSC(c2cccc(Oc3ccccc3)c2)N1c1ccc(Cl)cc1 (stereo not given) | > 100 µM | 49.4 µM | 95.8 | > 100 | > 100 µM | –
O=Cc1c(C(=O)O)[nH]c(=O)[nH]c1=O | – | > 100 µM | > 100 | > 100 | > 100 µM | –
O=C(O)c1ccc([N+](=O)[O-])c2cc3cnccc3nc12 | > 100 µM | 32.4 µM | 34.2 | > 100 | 37.2 µM | –
O=C(NNC(=S)Nc1cccc(Cl)c1)c1cc(-c2ccccc2)nc2ccccc12 | 32.1 µM | 34.9 µM | 66.5 | 29.5 | 33.7 µM | –
OCC(O)COCn1nncc1Cn1ncc2c(SCc3ccccc3)ncnc21 (stereo not given) | > 100 µM | 33.1 µM | – | > 100 | > 100 µM | –
CC1=NNC(N)=N/C1=C\C(Sc1ccc(Cl)cc1)c1ccc([N+](=O)[O-])cc1 (stereo not given) | > 100 µM | > 100 µM | – | > 100 | > 100 µM | –
Cc1cccc(N=NC(=O)NNc2cccc(C)c2C)c1C | 86.7 µM | 53.6 µM | > 100 | > 100 | > 100 µM | –
Cc1nc(-c2cc3cc([N+](=O)[O-])ccc3oc2=O)cs1 | > 100 µM | – | 94.8 | > 100 | > 100 µM | –
CC(C)[Si](OC1=C(C(=O)N(C)c2cccc(Cl)c2)CCCC1)(C(C)C)C(C)C | 32.4 µM | – | 22.8 | 25.5 | 29.3 µM | –
O=C(N/N=C\c1cccc2c([N+](=O)[O-])cccc12)Nc1ccccc1 | 36 µM | 38.4 µM | > 100 | 66.1 | 29.5 µM | –
Oc1c(CN2CCOCC2)ccc2cccnc12 | > 10 µM | 7.81 µM | > 10 | > 10 | > 10 µM | –
CSc1ccc2c(cc1=O)[C@@H](NC(=O)c1ccc(N)cc1)CCc1cc(O)c(O)c(O)c1-2 | 27.8 µM and 34.7 µM | 42.5 µM and 50.5 µM | > 100 | > 100 | 27.9 µM and 36.5 µM | 13.5 µM and 5.66 µM
CC12C(=O)CC(CC1=O)C2(C)C | > 100 µM | > 100 µM | > 100 | > 100 | > 100 µM | –
O=C1C=C(C2=CC(=O)C(=O)c3ccccc32)c2ccccc2C1=O | 64.6 µM | > 100 µM | 60.1 | 29.4 | > 100 µM | –
